We go through 26 compounds from patent US20090042726A1, “Novel Herbicides” (SYNGENTA LIMITED, priority 2005, published 2009).

Each structure is given as a SMILES string.

Data set [1] has as its system Monocotyledonous and dicotyledonous test plants. Nature of the data set: Herbicidal action, application pre-emergence (Example B1). More on the design: key: 10=total damage to plant; 0=no damage to plant. It is filed as in vivo. Particulars: 1000 g/ha, evaluated after 9 or 13 days; for AGSTE herbicidal action (damage score 0-10): Agrostis-tenius; for AMARE herbicidal action (damage score 0-10): Amaranthus retroflexus; for DIGSA herbicidal action (damage score 0-10): Digitaria sanguinalis; for POATR herbicidal action (damage score 0-10): Poa trivialis; for SETIT herbicidal action (damage score 0-10): Setaria italica. An outline of the steps: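 Seeds sown in sterilised standard soil were sprayed one day after sowing (pre-emergence) with 1000 mg/l active ingredient in aqueous solution containing 10% DMSO. Plants were kept in a climatic chamber at 24/19° C. day/night after application. Damage was scored 0 (none) to 10 (total) after 9 or 13 days.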

In general, melting point refers to the temperature of the solid-liquid transition. With `Cc1nc(CS(=O)(=O)C2=NOC(C)(C)C2F)n(C)n1` (centres unmarked) [8.04, 3-[(1,3-dimethyl-1H-[1,2,4]-triazol-5-yl)-methanesulfonyl]-4-fluoro-5,5-dimethyl-4,5-dihydro-isoxazole], the melting point lay within 182 to 184 °C.

In turn, `Cn1nc(C(F)(F)F)c(CS(=O)(=O)C2=NOC(C)(C)C2Cl)c1OCC(F)(F)F` (centres unmarked) [Compound No. 2.15, 4-chloro-5,5-dimethyl-3-[1-methyl-5-(2,2,2-trifluoro-ethoxy)-3-trifluoromethyl-1H-pyrazol-4-ylmethylsulfonyl]-4,5-dihydro-isoxazole] yielded a melting point of 111 to 112 °C. For the same compound, in data set [1], the “AGSTE herbicidal action (damage score 0-10)” value (shortened to “AGSTE herbicidal action”) is given as 10, the “AMARE herbicidal action (damage score 0-10)” value (“AMARE herbicidal action” below) came out at 8, the “DIGSA herbicidal action (damage score 0-10)” value (from here on “DIGSA herbicidal action”) was found to be 8 and the “POATR herbicidal action (damage score 0-10)” value (shortened to “POATR herbicidal action”) was 10. For the same compound, in data set [1], the “SETIT herbicidal action (damage score 0-10)” value (“SETIT herbicidal action” below) is listed as 6.

As to `Cc1nc(C(Cl)S(=O)(=O)C2=NOC(C)(C)C2F)n(C)n1` (racemic) [8.05, 3-[chloro-(1,3-dimethyl-1H-[1,2,4]triazol-5-yl)-methane-sulfonyl]-4-fluoro-5,5-dimethyl-4,5-dihydro-isoxazole], the melting point was in the range of 140 to 141 °C. Further, in data set [1], the “AGSTE herbicidal action” value is on record as 10, the “AMARE herbicidal action” value was 10, the “DIGSA herbicidal action” value stood at 9 and the “POATR herbicidal action” value was determined as 8.

For the compound `Cn1nc(C(F)(F)F)c(CSC2=NOC(C)(C)C2F)c1OCC(F)(F)F` (centres unmarked) [Compound No. 2.07, 4-fluoro-5,5-dimethyl-3-[1-methyl-5-(2,2,2-trifluoro-ethoxy)-3-trifluoromethyl-1H-pyrazol-4-ylmethylsulfanyl]-4,5-dihydro-isoxazole], the melting point lay within 50 to 51 °C.

In the case of `C=CCn1cc(CS(=O)(=O)C2=NOC(C)(C)C2F)c(C(F)(F)F)n1` (centres unmarked) [2.53], in data set [1], the “AGSTE herbicidal action” value amounted to 10, the “AMARE herbicidal action” value was 10, the “DIGSA herbicidal action” value was 9 and the “POATR herbicidal action” value is recorded as 10.

As for `CC(C)n1nc(C[S+]([O-])C2=NOC(C)(C)C2F)c(C(F)(F)F)n1` (single isomer, unassigned) [7.25], in data set [1], the “AGSTE herbicidal action” value was determined as 10, the “AMARE herbicidal action” value was 9, the “DIGSA herbicidal action” value amounted to 9 and the “POATR herbicidal action” value is 10.

`Cc1nc(C(F)(F)F)ccc1CS(=O)(=O)C1=NOC(C)(C)C1F` (centres unmarked) [3.03]: in data set [1], the “AGSTE herbicidal action” value worked out at 10, the “AMARE herbicidal action” value was 10, the “DIGSA herbicidal action” value was determined as 0 and the “POATR herbicidal action” value was found to be 10. The “SETIT herbicidal action” value in data set [1] stood at 9.

For the compound `C#CCn1cc(C[S+]([O-])C2=NOC(C)(C)C2F)c(C(F)(F)F)n1` (mixture of isomers) [2.49], in data set [1], the “AGSTE herbicidal action” value is on record as 10, the “AMARE herbicidal action” value turned out to be 10, the “DIGSA herbicidal action” value stood at 10 and the “POATR herbicidal action” value amounted to 10.

Consider `COCCOc1c(CS(=O)(=O)C2=NOC(C)(C)C2F)c(C(F)(F)F)nn1C` (centres unmarked) [2.59], for which, in data set [1], the “AGSTE herbicidal action” value was determined as 10, the “AMARE herbicidal action” value stood at 10, the “DIGSA herbicidal action” value turned out to be 10 and the “POATR herbicidal action” value is listed as 10.

In the case of `Cn1nc(C(F)(F)F)c(C[S+]([O-])C2=NOC(C)(C)C2Br)c1OC(F)F` (centres unmarked) [Compound No. 2.05, 4-bromo-3-(5-difluoromethoxy-1-methyl-3-trifluoromethyl-1H-pyrazol-4-ylmethylsulfinyl)-5,5-dimethyl-4,5-dihydro-isoxazole], in data set [1], the “AGSTE herbicidal action” value came to 9, the “AMARE herbicidal action” value was determined as 2, the “DIGSA herbicidal action” value turned out to be 8 and the “POATR herbicidal action” value was determined as 0. Moreover, the “SETIT herbicidal action” value in data set [1] is given as 9.

For the compound `CC1(C)ON=C(SCc2nn(CC3CCC3)nc2C(F)(F)F)C1F` (centres unmarked) [Compound No. 7.15], in data set [1], the “AGSTE herbicidal action” value is on record as 8, the “AMARE herbicidal action” value came to 9, the “DIGSA herbicidal action” value is reported as 9 and the “POATR herbicidal action” value came out at 0.

For `COCCn1nc(CS(=O)(=O)C2=NOC(C)(C)C2F)c(C(F)(F)F)n1` (centres unmarked) [7.20], in data set [1], the “AGSTE herbicidal action” value is listed as 10, the “AMARE herbicidal action” value turned out to be 10, the “DIGSA herbicidal action” value was 10 and the “POATR herbicidal action” value came to 10.

With `CC1(C)ON=C(S(=O)(=O)C(F)(F)c2c(F)cccc2F)C1F` (centres unmarked) [Compound No. 1.18, 3-[(2,6-difluoro-phenyl)-difluoro-methanesulfonyl]-4-fluoro-5,5-dimethyl-4,5-dihydro-isoxazole], the melting point was in the range of 115 to 116 °C. In data set [1], the “AGSTE herbicidal action” value is on record as 10, the “AMARE herbicidal action” value was 10, the “DIGSA herbicidal action” value is listed as 10 and the “POATR herbicidal action” value came out at 8. Further, in data set [1], the “SETIT herbicidal action” value was 9.

Turning to `C=CCn1nc(C[S+]([O-])C2=NOC(C)(C)C2F)c(C(F)(F)F)n1` (single isomer, unassigned) [7.08], in data set [1], the “AGSTE herbicidal action” value amounted to 10, the “AMARE herbicidal action” value is reported as 10, the “DIGSA herbicidal action” value came to 10 and the “POATR herbicidal action” value came to 10.

For the compound `COCCn1nc(C[S+]([O-])C2=NOC(C)(C)C2F)c(C(F)(F)F)n1` (mixture of isomers) [7.19], in data set [1], the “AGSTE herbicidal action” value is 6, the “AMARE herbicidal action” value came to 10, the “DIGSA herbicidal action” value turned out to be 9 and the “POATR herbicidal action” value is reported as 10.

`CC1(C)ON=C([S+]([O-])Cc2c(F)cccc2F)C1F` (single isomer, unassigned) [1.16]: in data set [1], the “AGSTE herbicidal action” value turned out to be 10, the “AMARE herbicidal action” value is on record as 8, the “DIGSA herbicidal action” value was determined as 10 and the “POATR herbicidal action” value came to 10. Also, in data set [1], the “SETIT herbicidal action” value is on record as 6.

For `Cn1nc(OC(F)F)cc1C[S+]([O-])C1=NOC(C)(C)C1F` (mixture of isomers) [6.09], in data set [1], the “AGSTE herbicidal action” value is 10, the “AMARE herbicidal action” value came to 10, the “DIGSA herbicidal action” value is 9 and the “POATR herbicidal action” value is recorded as 9.

Turning to `Cn1cc(C[S+]([O-])C2=NOC(C)(C)C2F)c(C(F)(F)F)n1` (mixture of isomers) [2.33], in data set [1], the “AGSTE herbicidal action” value is recorded as 10, the “AMARE herbicidal action” value stood at 6, the “DIGSA herbicidal action” value is 9 and the “POATR herbicidal action” value stood at 9. Besides, the “SETIT herbicidal action” value in data set [1] is 9.

As to `Cn1cc(CS(=O)(=O)C2=NOC(C)(C)C2F)c(C(F)(F)F)n1` (centres unmarked) [2.34], in data set [1], the “AGSTE herbicidal action” value is listed as 10, the “AMARE herbicidal action” value was determined as 10, the “DIGSA herbicidal action” value is on record as 10 and the “POATR herbicidal action” value is 10. Also, the “SETIT herbicidal action” value in data set [1] stood at 9.

Take `Cn1nc(C(F)(F)F)c(Cl)c1CS(=O)(=O)C1=NOC(C)(C)C1F` (centres unmarked) [6.07]: in data set [1], the “AGSTE herbicidal action” value amounted to 10, the “AMARE herbicidal action” value is 7, the “DIGSA herbicidal action” value amounted to 9 and the “POATR herbicidal action” value came to 10.

In the case of `Cn1ncc(C[S+]([O-])C2=NOC(C)(C)C2F)n1` (mixture of isomers) [7.22], in data set [1], the “AGSTE herbicidal action” value is 9, the “AMARE herbicidal action” value is recorded as 0, the “DIGSA herbicidal action” value is reported as 8 and the “POATR herbicidal action” value was found to be 9.

On to `C=CCn1nc(CS(=O)(=O)C2=NOC(C)(C)C2F)c(C(F)(F)F)n1` (centres unmarked) [7.10], for which, in data set [1], the “AGSTE herbicidal action” value is listed as 10, the “AMARE herbicidal action” value was 10, the “DIGSA herbicidal action” value stood at 10 and the “POATR herbicidal action” value came to 10.

Consider `Cn1nc(C(F)(F)F)c(C[S+]([O-])C2=NOC(C)(C)C2F)c1OCC(F)(F)F` (single isomer, unassigned) [2.10], for which, in data set [1], the “AGSTE herbicidal action” value was 10, the “AMARE herbicidal action” value worked out at 8, the “DIGSA herbicidal action” value amounted to 10 and the “POATR herbicidal action” value stood at 10. For the same compound, in data set [1], the “SETIT herbicidal action” value is reported as 9.

For `CCn1cc(CS(=O)(=O)C2=NOC(C)(C)C2F)c(C(F)(F)F)n1` (centres unmarked) [2.47], in data set [1], the “AGSTE herbicidal action” value is 10, the “AMARE herbicidal action” value was 10, the “DIGSA herbicidal action” value is 9 and the “POATR herbicidal action” value is given as 10.

`Cn1nc(C(F)(F)F)c(Cl)c1CSC1=NOC(C)(C)C1F` (centres unmarked) [Compound No. 6.05]: in data set [1], the “AGSTE herbicidal action” value amounted to 10, the “AMARE herbicidal action” value is on record as 0, the “DIGSA herbicidal action” value is listed as 5 and the “POATR herbicidal action” value was found to be 4.

As to `Cc1nn(C)nc1CSC1=NOC(C)(C)C1F` (centres unmarked) [Compound No. 7.01], in data set [1], the “AGSTE herbicidal action” value amounted to 10, the “AMARE herbicidal action” value stood at 0, the “DIGSA herbicidal action” value was 8 and the “POATR herbicidal action” value is recorded as 0. The “SETIT herbicidal action” value in data set [1] came out at 8.
